The text below walks through data of patent US20250353851A1, “PURINES AND METHODS OF THEIR USE” (Kineta, Inc., priority 2021, published 2025).

The target of the test is T1, full-length human PIKFYVE (N-terminal GST-fusion) (Homo sapiens, UniProt Q9Y2I7, L932S/Q1183K/Q995L/S1033A/S696N/T998S).
T1 construct: A full-length human PIKFYVE [1-2098(end) amino acids; purchased Carna Biosciences; host or cells: baculovirus expression system
Kind of test: PIKfyve Biochemical Assay (ADP-Glo Kinase assay, Carna Biosciences). As to the method:
PIKfyve Biochemical Assay. The biochemical PIKFyve inhibition assays were run by Carna Biosciences according to proprietary methodology based on the Promega ADP-Glo™ Kinase assay. […] GST-PIKFYVE was purified by using glutathione sepharose chromatography and used in an ADP-Glo™ Kinase assay (Promega). Reactions were set up by adding the test compound solution, substrate solution, ATP solution and kinase solution, each at 4× final concentrations. Reactions were prepared with assay buffer (50 mM MOPS, 1 mM DTT, pH7.2), mixed, and incubated in black 384 well polystyrene plates for 1 hour at room temperature. ADP-Glo™ reagent was then added for 40 minutes, followed by kinase detection reagent for an additional 40 minutes. The kinase activity was evaluated by detecting relative light units on a luminescence plate reader. Samples were run in duplicate from 10 μM to 3 nM. […] IC50 values were calculated from concentration vs % inhibition curves by fitting to a four-parameter logistic curve.
The biochemical PIKFyve inhibition assays were run by Carna Biosciences according to proprietary methodology based on the Promega ADP-Glo™ Kinase assay. […] The kinase activity was evaluated by detecting relative light units on a luminescence plate reader. […] IC50 values were calculated from concentration vs % inhibition curves by fitting to a four-parameter logistic curve. […]
A general note: ADP-Glo turns the ADP formed in a reaction into a luminescent signal.

T1 sequence (Q9Y2I7 whole entry S696N/L932S/Q995L/T998S/S1033A/Q1183K, the tested form may be a part): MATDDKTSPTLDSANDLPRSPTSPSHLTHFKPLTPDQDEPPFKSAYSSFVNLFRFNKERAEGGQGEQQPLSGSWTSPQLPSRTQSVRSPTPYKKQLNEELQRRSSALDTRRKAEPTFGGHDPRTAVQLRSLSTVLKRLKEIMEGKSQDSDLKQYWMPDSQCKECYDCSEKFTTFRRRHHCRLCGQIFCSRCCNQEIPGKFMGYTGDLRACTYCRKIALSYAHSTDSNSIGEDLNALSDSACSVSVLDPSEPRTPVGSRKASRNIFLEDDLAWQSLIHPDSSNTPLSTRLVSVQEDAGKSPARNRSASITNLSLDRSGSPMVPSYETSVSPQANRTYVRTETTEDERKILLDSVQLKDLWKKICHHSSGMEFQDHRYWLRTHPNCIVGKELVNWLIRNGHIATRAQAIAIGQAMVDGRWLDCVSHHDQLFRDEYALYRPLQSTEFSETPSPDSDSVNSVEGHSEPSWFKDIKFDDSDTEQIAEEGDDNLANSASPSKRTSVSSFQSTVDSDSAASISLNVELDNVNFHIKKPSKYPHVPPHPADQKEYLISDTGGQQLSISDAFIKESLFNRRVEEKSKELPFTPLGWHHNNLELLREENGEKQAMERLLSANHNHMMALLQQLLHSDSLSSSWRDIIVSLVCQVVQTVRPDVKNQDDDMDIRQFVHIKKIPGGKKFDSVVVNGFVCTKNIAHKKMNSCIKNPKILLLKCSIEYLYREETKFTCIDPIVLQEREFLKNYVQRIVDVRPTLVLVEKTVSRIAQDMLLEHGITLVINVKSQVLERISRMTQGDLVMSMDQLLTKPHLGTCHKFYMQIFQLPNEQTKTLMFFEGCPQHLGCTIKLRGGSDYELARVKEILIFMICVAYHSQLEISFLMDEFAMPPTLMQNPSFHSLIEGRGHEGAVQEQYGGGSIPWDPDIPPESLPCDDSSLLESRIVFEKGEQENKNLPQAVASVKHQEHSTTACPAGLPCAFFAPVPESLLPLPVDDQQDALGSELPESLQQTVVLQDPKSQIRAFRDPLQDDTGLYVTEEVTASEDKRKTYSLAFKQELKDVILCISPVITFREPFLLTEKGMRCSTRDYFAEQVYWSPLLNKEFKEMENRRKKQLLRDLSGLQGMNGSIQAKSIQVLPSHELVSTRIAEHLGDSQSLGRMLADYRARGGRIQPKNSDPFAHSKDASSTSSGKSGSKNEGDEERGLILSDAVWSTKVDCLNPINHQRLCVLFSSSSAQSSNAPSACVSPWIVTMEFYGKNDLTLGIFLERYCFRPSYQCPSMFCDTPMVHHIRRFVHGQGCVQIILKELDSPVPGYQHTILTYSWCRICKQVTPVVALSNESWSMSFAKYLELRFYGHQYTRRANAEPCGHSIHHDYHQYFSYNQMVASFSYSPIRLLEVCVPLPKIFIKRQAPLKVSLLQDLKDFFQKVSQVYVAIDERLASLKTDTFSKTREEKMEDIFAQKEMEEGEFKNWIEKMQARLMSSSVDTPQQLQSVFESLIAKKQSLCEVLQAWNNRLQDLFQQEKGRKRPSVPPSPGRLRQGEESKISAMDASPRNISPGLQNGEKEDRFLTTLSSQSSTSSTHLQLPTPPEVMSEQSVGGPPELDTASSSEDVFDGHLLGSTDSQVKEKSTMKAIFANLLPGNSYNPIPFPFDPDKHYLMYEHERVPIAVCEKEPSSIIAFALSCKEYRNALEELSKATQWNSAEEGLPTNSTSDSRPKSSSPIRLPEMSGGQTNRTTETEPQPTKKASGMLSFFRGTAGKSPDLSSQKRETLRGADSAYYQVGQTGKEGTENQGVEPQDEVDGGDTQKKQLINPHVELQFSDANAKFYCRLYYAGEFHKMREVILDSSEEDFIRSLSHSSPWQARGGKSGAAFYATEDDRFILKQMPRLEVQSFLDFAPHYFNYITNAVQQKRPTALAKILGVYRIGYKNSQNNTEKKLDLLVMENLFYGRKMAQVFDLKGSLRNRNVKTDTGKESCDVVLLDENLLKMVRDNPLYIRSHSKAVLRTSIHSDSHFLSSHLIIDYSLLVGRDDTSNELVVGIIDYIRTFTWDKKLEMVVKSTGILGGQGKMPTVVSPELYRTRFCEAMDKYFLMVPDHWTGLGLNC

The IC50 is the point on the concentration scale where inhibition reaches its midpoint. A higher IC50 goes with weaker potency. The compound `CCn1c(C(C)O)nc2c(N3CCCCC3)nc(-c3cccc(-c4ccn(C)n4)c3)nc21` (stereo not shown) [Compound 339, 1-(9-ethyl-2-(3-(1-methyl-1H-pyrazol-3-yl)phenyl)-6-(piperidin-1-yl)-9H-purin-8-yl)ethan-1-ol] displayed a half-inhibitory concentration (IC50) of 4.41 µM.
